In brackets after ≈: the same amount, converted by molar mass. Like-named read-outs stand apart in the source and are kept apart here.
What was measured:
VRSA (VRS10) = test: MIC/MBC broth microdilution, VRSA (VRS10); format: cell-based, Staphylococcus aureus; conditions: Staphylococcus aureus; for MBC: read-out: Minimum Bactericidal Concentration; for MIC: read-out: Minimum Inhibitory Concentration
Protocol: (§1) Determination of minimum inhibitory concentration (MIC). The MICs of the lead thiazole compound (compound 1a) and nine derivatives tested against all 18 MRSA strains were determined, in triplicate samples, using the broth microdilution method in accordance with the recommendations contained in the CLSI guidelines.

VISA HIP07256 (NRS19) = test: MIC/MBC broth microdilution, NRS19 (VISA HIP07256); format: cell-based; conditions: Staphylococcus aureus, Table 8, NRS19 (VISA); for MBC: read-out: MBC; for MIC: read-out: MIC
Protocol: as §1

MRSA ATCC 43300 = test: MIC/MBC broth microdilution, MRSA ATCC 43300; format: cell-based, Staphylococcus aureus; conditions: Staphylococcus aureus
Protocol: as §1

VISA LIM 3 (NRS37) = test: MIC/MBC broth microdilution, NRS37 (VISA LIM 3); format: cell-based; conditions: Staphylococcus aureus, Table 8, NRS37 (VISA); for MBC: read-out: MBC; for MIC: read-out: MIC
Protocol: as §1

NRS107 = test: MIC/MBC broth microdilution, NRS107; format: cell-based; conditions: Staphylococcus aureus; for MBC: Table 8, read-out: MBC; for MIC: Table 8, read-out: MIC
Protocol: as §1

MRSA NRS384 (USA300) = test: MIC/MBC broth microdilution, NRS384 (USA300); format: cell-based; conditions: Staphylococcus aureus, Table 8, NRS384; for MBC: read-out: MBC; for MIC: read-out: MIC
Protocol: as §1

[1] = tested on: MRSA ATCC 700699 (NRS1, VISA); test: MIC/MBC broth microdilution, NRS1 (ATCC 700699); format: cell-based; conditions: Staphylococcus aureus
Protocol: as §1

NRS194 = test: MIC/MBC broth microdilution, NRS194; format: cell-based; conditions: Staphylococcus aureus; for MBC: Table 8, read-out: MBC; for MIC: Table 8, read-out: MIC
Protocol: as §1

MRSA USA500 (NRS385) = test: MIC/MBC broth microdilution, NRS385 (USA500); format: cell-based; conditions: Staphylococcus aureus, Table 8, NRS385; for MBC: read-out: MBC; for MIC: read-out: MIC
Protocol: as §1

MRSA USA400 (NRS123) = test: MIC/MBC broth microdilution, NRS123 (USA400); format: cell-based; conditions: Staphylococcus aureus, Table 8, NRS123; for MBC: read-out: MBC; for MIC: read-out: MIC
Protocol: as §1

NRS119 = test: MIC/MBC broth microdilution, NRS119; format: cell-based; conditions: Staphylococcus aureus
Protocol: as §1

[2] = Table 6, MRSA ATCC 43300, 128 μM down to 1.0 μM, 20 hours, read-out: MIC
[3] = Table 6, MRSA ATCC 43300, plating on TSA, 20 hour incubation, read-out: MBC
[4] = Table 7, MRSA (ATCC 43300), read-out: Minimum Bactericidal Concentration
[5] = Table 7, MRSA (ATCC 43300), read-out: Minimum Inhibitory Concentration
[6] = Table 8, ATCC 43300, read-out: MBC
[7] = Table 8, ATCC 43300, read-out: MIC
[8] = Table 7, VISA (NRS1), read-out: Minimum Bactericidal Concentration
[9] = Table 7, VISA (NRS1), read-out: Minimum Inhibitory Concentration
[10] = Table 8, NRS1 (VISA), read-out: MBC
[11] = Table 8, NRS1 (VISA), triplicates, 20 hours, read-out: MIC
[12] = NRS 119 / VISA, Table 7, VISA (NRS119), read-out: Minimum Bactericidal Concentration
[13] = NRS 119 / VISA, Table 7, VISA (NRS119), read-out: Minimum Inhibitory Concentration
[14] = read-out: Minimum Bactericidal Concentration
[15] = read-out: Minimum Inhibitory Concentration

Row | Structure (SMILES) | MBC (VRSA (VRS10); Table 7, VRSA (VRS10)) [µM] | MIC (VRSA (VRS10); Table 7, VRSA (VRS10)) [µM] | MBC (VISA HIP07256 (NRS19)) [µM] | MIC (VISA HIP07256 (NRS19)) [µM] | MIC (MRSA ATCC 43300; [2]) [µM] | MBC (MRSA ATCC 43300; [3]) [µM] | MBC (MRSA ATCC 43300; [4]) [µM] | MIC (MRSA ATCC 43300; [5]) [µM] | MBC (MRSA ATCC 43300; [6]) [µM] | MIC (MRSA ATCC 43300; [7]) [µM] | MBC (VISA LIM 3 (NRS37)) [µM] | MIC (VISA LIM 3 (NRS37)) [µM] | MBC (NRS107) [µM] | MIC (NRS107) [µM] | MIC (MRSA NRS384 (USA300)) [µM] | MIC [1, 11] [µM] | MIC (NRS194) [µM] | MIC (MRSA USA500 (NRS385)) [µM] | MIC (MRSA USA400 (NRS123)) [µM] | MIC (NRS119; Table 8, NRS119, read-out: MIC) [µM] | further results
1 | C/C(=N/NC(=N)N)c1sc(-c2ccc(-c3ccc(F)cc3)cc2)nc1C [Compound M12, (Z)-2-(1-(2-(4′-fluoro-[1,1′-biphenyl]-4-yl)-4-methylthiazol-5-yl)ethylidene)hydrazinecarboximidamide] | 64 (≈ 23.5 µg/mL) | 8 (≈ 2.94 µg/mL) | 16 (≈ 5.88 µg/mL) | 16 (≈ 5.88 µg/mL) | 4 (≈ 1.47 µg/mL) | > 16 | 16 (≈ 5.88 µg/mL) | 4 (≈ 1.47 µg/mL) | 16 (≈ 5.88 µg/mL) | 16 (≈ 5.88 µg/mL) | 16 (≈ 5.88 µg/mL) | 8 (≈ 2.94 µg/mL) | 16 (≈ 5.88 µg/mL) | 8 (≈ 2.94 µg/mL) | 16 (≈ 5.88 µg/mL) | 8 (≈ 2.94 µg/mL) | 16 (≈ 5.88 µg/mL) | 16 (≈ 5.88 µg/mL) | 16 (≈ 5.88 µg/mL) | 16 (≈ 5.88 µg/mL) | MBC (MRSA NRS384 (USA300)): 16 µM (≈ 5.88 µg/mL); MBC [1, 8]: 8 µM (≈ 2.94 µg/mL); MIC [1, 9]: 4 µM (≈ 1.47 µg/mL); MBC [1, 10]: 8 µM (≈ 2.94 µg/mL); MBC (NRS194): 32 µM (≈ 11.8 µg/mL); MBC (MRSA USA500 (NRS385)): 16 µM (≈ 5.88 µg/mL); MBC (MRSA USA400 (NRS123)): 32 µM (≈ 11.8 µg/mL); MBC (NRS119; [12]): 16 µM (≈ 5.88 µg/mL); MIC (NRS119; [13]): 16 µM (≈ 5.88 µg/mL); MBC (NRS119; Table 8, NRS119, read-out: MBC): 32 µM (≈ 11.8 µg/mL)
2 | C/C(=N/NC(=N)N)c1sc(-c2ccc(-c3cccc4ccccc34)cc2)nc1C [Compound M14] | 8 (≈ 3.2 µg/mL) | 8 (≈ 3.2 µg/mL) | 4 (≈ 1.6 µg/mL) | 4 (≈ 1.6 µg/mL) | 4 (≈ 1.6 µg/mL) | 8 (≈ 3.2 µg/mL) | 16 (≈ 6.39 µg/mL) | 8 (≈ 3.2 µg/mL) | 4 (≈ 1.6 µg/mL) | 4 (≈ 1.6 µg/mL) | 4 (≈ 1.6 µg/mL) | 4 (≈ 1.6 µg/mL) | 4 (≈ 1.6 µg/mL) | 4 (≈ 1.6 µg/mL) | 4 (≈ 1.6 µg/mL) | 4 (≈ 1.6 µg/mL) | 4 (≈ 1.6 µg/mL) | 4 (≈ 1.6 µg/mL) | 4 (≈ 1.6 µg/mL) | 4 (≈ 1.6 µg/mL) | MBC (MRSA NRS384 (USA300)): 4 µM (≈ 1.6 µg/mL); MBC [1, 8]: 4 µM (≈ 1.6 µg/mL); MIC [1, 9]: 2 µM (≈ 0.799 µg/mL); MBC [1, 10]: 4 µM (≈ 1.6 µg/mL); MBC (NRS194): 4 µM (≈ 1.6 µg/mL); MBC (MRSA USA500 (NRS385)): 8 µM (≈ 3.2 µg/mL); MBC (MRSA USA400 (NRS123)): 4 µM (≈ 1.6 µg/mL); MBC (NRS119; [12]): 16 µM (≈ 6.39 µg/mL); MIC (NRS119; [13]): 4 µM (≈ 1.6 µg/mL); MBC (NRS119; Table 8, NRS119, read-out: MBC): 4 µM (≈ 1.6 µg/mL)
3 | CC(=O)c1ccc(-c2ccc(-c3nc(C)c(/C(C)=N\NC(=N)N)s3)cc2)cc1 [Compound M11, (Z)-2-(1-(2-(4′-acetyl-[1,1′-biphenyl]-4-yl)-4-methylthiazol-5-yl)ethylidene)hydrazinecarboximidamide] | 16 (≈ 6.26 µg/mL) | 16 (≈ 6.26 µg/mL) | 32 (≈ 12.5 µg/mL) | 32 (≈ 12.5 µg/mL) | 4 (≈ 1.57 µg/mL) | 8 (≈ 3.13 µg/mL) | 8 (≈ 3.13 µg/mL) | 8 (≈ 3.13 µg/mL) | 16 (≈ 6.26 µg/mL) | 16 (≈ 6.26 µg/mL) | 16 (≈ 6.26 µg/mL) | 8 (≈ 3.13 µg/mL) | 32 (≈ 12.5 µg/mL) | 16 (≈ 6.26 µg/mL) | 16 (≈ 6.26 µg/mL) | 16 (≈ 6.26 µg/mL) | 16 (≈ 6.26 µg/mL) | 16 (≈ 6.26 µg/mL) | 16 (≈ 6.26 µg/mL) | 16 (≈ 6.26 µg/mL) | MBC (MRSA NRS384 (USA300)): 16 µM (≈ 6.26 µg/mL); MBC [1, 8]: 32 µM (≈ 12.5 µg/mL); MIC [1, 9]: 8 µM (≈ 3.13 µg/mL); MBC [1, 10]: 16 µM (≈ 6.26 µg/mL); MBC (NRS194): 16 µM (≈ 6.26 µg/mL); MBC (MRSA USA500 (NRS385)): 16 µM (≈ 6.26 µg/mL); MBC (MRSA USA400 (NRS123)): 16 µM (≈ 6.26 µg/mL); MBC (NRS119; [12]): 32 µM (≈ 12.5 µg/mL); MIC (NRS119; [13]): 16 µM (≈ 6.26 µg/mL); MBC (NRS119; Table 8, NRS119, read-out: MBC): 32 µM (≈ 12.5 µg/mL)
4 | CC(=O)c1sc(-c2ccc(-c3ccc(F)cc3)cc2)nc1C [Compound M8, 1-(2-(4′-fluoro-[1,1′-biphenyl]-4-yl)-4-methylthiazol-5-yl)ethanone] | – | – | – | > 128 | > 128 | – | – | – | – | > 128 | – | > 128 | – | > 128 | > 128 | > 128 | > 128 | > 128 | > 128 | > 128 | –
5 | CCCCCCCC#Cc1ccc(-c2nc(C)c(/C(C)=N/NC(=N)N)s2)cc1 [Compound M17, (E)-2-(1-(4-methyl-2-(4-(non-1-yn-1-yl)phenyl)thiazol-5-yl)ethylidene) hydrazinecarboximidamide] | – | – | – | – | – | – | – | – | – | – | – | – | – | – | – | – | – | – | – | – | MBC (VRSA (VRS10); VRSA): 64 µM (≈ 25.3 µg/mL); MIC (VRSA (VRS10); VRSA): 32 µM (≈ 12.7 µg/mL); MIC (MRSA ATCC 43300; 20 h): 32 µM (≈ 12.7 µg/mL); MBC (MRSA ATCC 43300; [14]): 64 µM (≈ 25.3 µg/mL); MIC (MRSA ATCC 43300; [15]): 32 µM (≈ 12.7 µg/mL); MBC [1, 14]: 32 µM (≈ 12.7 µg/mL); MIC [1, 15]: 16 µM (≈ 6.33 µg/mL); MBC (NRS119; NRS 119 / VISA, read-out: Minimum Bactericidal Concentration): 64 µM (≈ 25.3 µg/mL); MIC (NRS119; NRS 119 / VISA, read-out: Minimum Inhibitory Concentration): 32 µM (≈ 12.7 µg/mL)
6 | CC(=O)c1sc(-c2ccc(-c3ccc(C(F)(F)F)cc3)cc2)nc1C [Compound M10, 1-(4-methyl-2-(4′-(trifluoromethyl)-[1,1′-biphenyl]-4-yl)thiazol-5-yl)ethanone] | – | – | – | > 128 | > 128 | – | – | – | – | > 128 | – | > 128 | – | > 128 | > 128 | > 128 | > 128 | > 128 | > 128 | > 128 | –
7 | CC(=O)c1sc(-c2ccc(-c3cccc4ccccc34)cc2)nc1C [Compound M6, 1-(4-methyl-2-(4-(naphthalen-1-yl)phenyl)thiazol-5-yl)ethanone] | – | – | – | > 128 | > 128 | – | – | – | – | > 128 | – | > 128 | – | > 128 | > 128 | > 128 | > 128 | > 128 | > 128 | > 128 | –

Reference: patent publication US9353072B2, “Antimicrobial substituted thiazoles and methods of use” (Purdue Research Foundation, priority 2012, dated 2016)
